Converted amounts (≈) assume the structure as drawn. Like-named read-outs stand apart in the source and are kept apart here. Where a SMILES comes first, the peptide text is derived from it. Where no end group is shown, it is not given here.
Experiments:
physchem = format: physicochemical
Experimental: The tests were carried out in three of the most common solvents used in biological applications such as: ultrapure water; DPBS (Dulbecco's Phosphate Buffered Saline), i.e., a saline buffer containing potassium chloride (KCl), monobasic potassium phosphate (KH2PO4), sodium chloride (NaCl) and dibasic sodium phosphate (Na2HPO4-7H2O) and finally in an organic solvent such as dimethylsulfoxide (DMSO).

L. monocytogenes (LM2) = format: cell-based, Listeria monocytogenes; settings: LM2
Experimental: (§1) The evaluation of the Minimum Bactericidal Concentration (MBC), i.e., the lowest concentration of antimicrobial agent capable of 99.9% inhibition of bacterial growth on plates, was carried out as described in Bílikova et al, (2015, Peptides 68:190-196). […] It should be noted that the peptide object of the present invention is more powerful and efficient than the peptide IDR-1018-K6 (described in patent application WO2019012158) against the pathogenic bacteria L. monocytogenes and S. typhimurium, with bactericidal concentration values 4-fold and 7-fold lower, respectively, compared to those shown by IDR-1018-K6.

[1] = tested on: Candida albicans (ATCC 14053); assay: activity against yeast, plate count, MFC; format: cell-based; settings: C. albicans
Experimental: The inhibitory activity of the RiLK1 peptide was determined against the yeast Candida albicans. A stock culture was prepared in which 10^5 CFUs of C. albicans were inoculated in 10 ml of buffered peptone water. A reference strain (ATCC 14053) was used for this species. The culture was incubated for 6 h at 37° C. with the RiLK1 peptide at 25 μM concentrations. At the same time, control samples were incubated without adding the peptide. 100 μl of the samples thus prepared were seeded on DG18 plates (Dichloran 18% Glycerol Agar-ISO 21527-2) and incubated at 25° C. for 7 days. All experimental conditions investigated used the plate count method to estimate the antimycotic activity of the peptide. Specifically, the numbers of colonies grown on agar plates seeded with the cultures in the absence or presence of the individual peptide dilutions were counted and compared. The standard deviations of the triplicate incubations of each plate were determined using statistical software. The evaluation of the Minimum Fungicidal Concentration (MFC), i.e., the lowest concentration of antifungal agent capable of 99.9% inhibition of fungal growth on plates, was carried out as described in Bílikova et al, (2015, Peptides 68:190-196).

[2] = tested on: Aspergillus brasiliensis (ATCC 9341); assay: antifungal activity, plate count, MFC; format: cell-based; settings: A. brasiliensis
Experimental: The antifungal activity of the RiLK1 peptide was determined against Aspergillus brasiliensis. For this purpose, a stock culture was prepared in which 10^5 CFUs of A. brasiliensis were inoculated in 10 ml of buffered peptone water. A reference strain (ATCC 9341) was used for this fungal species. The culture was incubated for 6 h at 37° C. with the RiLK1 peptide at 25 μM concentrations. At the same time, control samples were incubated without adding the peptide. 100 μl of the samples thus prepared were seeded on DG18 plates (Dichloran 18% Glycerol Agar-ISO 21527-2) and incubated at 25° C. for 7 days. All experimental conditions investigated used the plate count method to estimate the fungicidal activity of the peptide. Specifically, the numbers of colonies grown on agar plates seeded with the fungal suspensions in the absence or presence of the individual peptide dilutions were counted and compared. The standard deviations of the triplicate incubations of each plate were determined using statistical software. The evaluation of the Minimum Fungicidal Concentration (MFC), i.e., the lowest concentration of antifungal agent capable of 99.9% inhibition of fungal growth on plates, was carried out as described in Bílikova et al, (2015, Peptides 68:190-196).

S. typhimurium = format: cell-based, Salmonella typhimurium
Experimental: as §1

S. aureus = format: cell-based, Staphylococcus aureus
Experimental: as §1

E. coli = format: cell-based, Escherichia coli
Experimental: as §1

[3] = format: physicochemical
Experimental: The structural and conformational characterization of the RiLK1 peptide was assessed by investigating its secondary structure by ^1H NMR spectroscopy in H2O and in a micellar solution of SDS at a concentration of 150 mM to mimic the condition of the bacterial cell membrane.
In fact, the representative structures of the RiLK1 peptide in water show a random orientation of both polar and hydrophobic amino acid side chains.
The helical structure appears well defined and stabilized by hydrophobic interactions of amino acid residues located on the opposite face. It is important to note that, in this arrangement, all the charged side chains are iso-oriented and well prone to interact with the negatively charged surface of the SDS micelles. Furthermore, the two tryptophan residues within the RiLK1 sequence are located at an optimal distance for their mutual stacking, thus contributing to the stabilization of the helix. It should be pointed out that the ^1H NMR spectra of the peptide IDR-1018-K6 (described in patent application WO2019012158) could not be acquired in the presence of micellar solutions of SDS since it is not soluble at the concentrations required to carry out these assays. […] Therefore, it is possible to assert that the NMR analysis in the presence of SDS has shown that the RiLK1 peptide of the present invention is capable of adopting the helix conformation, whereas the IDR-1018-K6 peptide (object of patent WO2019012158) has poor solubility and a heterogeneous system not suitable for NMR structural characterization (Table 2).

Row | Molecule | Solubility limit (physchem) [µg/mL] | solubility (physchem; Solubility limit) [µg/mL] | Outcome (physchem; pH 7.1) | Outcome (physchem) | solubility (physchem; pH 7.1, Solubility limit) [µg/mL] | further results
1 | CC[C@@H](C)[C@@H](NC(=O)[C@@H](CCCNC(=N)N)NC(=O)[C@H](NC(=O)[C@@H](CCCCN)NC(=O)[C@H](NC(=O)[C@H](NC(=O)[C@@H](CC(C)C)NC(=O)[C@@H](CCCNC(=N)N)NC(=O)[C@H](N)C(C)C)[C@H](C)CC)C(C)C)C(C)C)C(=O)N[C@H](Cc1c[nH]c2ccccc12)C(=O)N[C@H](CCCNC(=N)N)C(=O)N[C@H](CCCNC(=N)N)C(N)=O [IDR-1018-K6 (D)] (HELM PEPTIDE1{[dV].[dR].[dL].[dI].[dV].[dK].[dV].[dR].[dI].[dW].[dR].[dR].[am]}$$$$V2.0; N-terminus and C-terminus assumed) | 0 | 10000 (≈ 6.28 mM) | NOT dissolved |  |  | Solubility limit (physchem; pH 7.1): 0 µg/mL
2 | CC[C@@H](C)[C@@H](NC(=O)[C@@H](CCCNC(=N)N)NC(=O)[C@H](NC(=O)[C@@H](Cc1c[nH]c2ccccc12)NC(=O)[C@@H](CCCCN)NC(=O)[C@@H](CC(C)C)NC(=O)[C@H](N)CCCNC(=N)N)C(C)C)C(=O)N[C@H](Cc1c[nH]c2ccccc12)C(=O)N[C@H](CCCNC(=N)N)C(=O)N[C@H](CCCNC(=N)N)C(N)=O [RiLK1(D), RLKWVRIWRR] (HELM PEPTIDE1{[dR].[dL].[dK].[dW].[dV].[dR].[dI].[dW].[dR].[dR].[am]}$$$$V2.0; N-terminus assumed) | 10000 (≈ 6.81 mM) | 10000 (≈ 6.81 mM) | Dissolved | Dissolved | 10000 (≈ 6.81 mM) | 
3 | RLKWVRIWRR-NH2 [RiLK1(L), RLKWVRIWRR] | 10000 | 10000 | Dissolved | Dissolved | 10000 | 
4 | VRLIVKVRIWRR-NH2 (C-terminus assumed) [IDR-1018-K6(L)] | 10000 | 5000 | Dissolved | Dissolved | 5000 | 
5 | VRLIVKVRIWRR-NH2 (C-terminus assumed) [IDR-1018-K6] |  | ≤ 5000 |  |  |  | MBC (L. monocytogenes (LM2)): 8 µM; Drop Log CFU/ml ([1]; 25 μM, 6 h): 1.0 Log CFU/ml; post-treatment decrease in the fungal load ([1]; 25 μM, 6 h): 1.0 Log; antimycotic activity in words ([1]; same experimental conditions): low efficiency; Drop Log CFU/ml ([2]; 25 μM, 6 h): 0 Log CFU/ml; post-treatment decrease in the fungal load ([2]; 25 μM, 6 h): 0 Log; antifungal activity in words ([2]; same experimental conditions): not active; MBC (S. typhimurium): 25 µM; solubility (physchem): totally insoluble; MBC (S. aureus): 15 µM; MBC (E. coli): 2 µM; solubility [3]: 1000 µM; peptide concentration in NMR sample (solubility) ([3]; pH 4.4): insoluble

— US20260234187A1, “ANTIMICROBIAL PEPTIDES” (MATERIAS S.R.L., priority 2020, published 2026)
